From ChEMBL document CHEMBL1201862, “PubChem BioAssay data set” (2004)
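Interpolation was linear, between the two tested concentrations surrounding the appropriate level; five concentrations were tested over 48 hours in 96-well plates. At the GI50, growth is halved.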 Active and inactive are the calls of the source. Cut-off read from the data, not from the text of the source: active = GI50 up to about 1.1 µM and inactive = higher.

How the values were obtained:
Experiment in all cases: inhibition of tumour cell growth, NCI panel, 48 h
ACHN = system: ACHN
MCF7 = system: MCF7
HCC 2998 = system: HCC 2998
OVCAR-4 = system: OVCAR-4
NCI-H226 = system: NCI-H226
SN12C = system: SN12C
NCI-H23 = system: NCI-H23
CCRF-CEM = system: CCRF-CEM
DU-145 = system: DU-145
SW-620 = system: SW-620
T47D = system: T47D
A549 = system: A549
MDA-MB-231 = system: MDA-MB-231
SF-295 = system: SF-295
OVCAR-8 = system: OVCAR-8
MDA-MB-435 = system: MDA-MB-435
786-0 = system: 786-0
EKVX = system: EKVX
MDA-N = system: MDA-N
SK-OV-3 = system: SK-OV-3

Structure (SMILES) | GI50 (ACHN) | GI50 (MCF7) | GI50 (HCC 2998) | GI50 (OVCAR-4) | GI50 (NCI-H226) | GI50 (SN12C) | GI50 (NCI-H23) | GI50 (CCRF-CEM) | GI50 (DU-145) | GI50 (SW-620) | GI50 (T47D) | GI50 (A549) | GI50 (MDA-MB-231) | GI50 (SF-295) | GI50 (OVCAR-8) | GI50 (MDA-MB-435) | GI50 (786-0) | GI50 (EKVX) | GI50 (MDA-N) | GI50 (SK-OV-3)
O=S(=O)(c1ccccc1)C1CN(Cc2ccccc2)CCN(Cc2ccccc2)C1 | 39.4 µM (inactive) | 36.8 µM (inactive) | > 78 µM (inactive) | 9.79 µM (inactive) | > 53.6 µM (inactive) | 32.4 µM (inactive) | 15.7 µM (inactive) | 5.14 µM (inactive) | 80.5 µM (inactive) | 24 µM (inactive) | 30 µM (inactive) | 39.7 µM (inactive) | 39.2 µM (inactive) | 73.8 µM (inactive) | 14.4 µM (inactive) | 20.9 µM (inactive) | > 74 µM (inactive) | 36.7 µM (inactive) | 6.46 µM (inactive) | > 71.6 µM (inactive)
CSc1nc(C)c2c(n1)N(c1ccc(Cl)cc1)CC2 | > 100 µM (inactive) | > 100 µM (inactive) | > 100 µM (inactive) | 61.4 µM (inactive) | > 100 µM (inactive) | > 100 µM (inactive) | > 100 µM (inactive) | > 100 µM (inactive) | > 100 µM (inactive) | > 100 µM (inactive) | > 100 µM (inactive) | > 100 µM (inactive) | 42.3 µM (inactive) | > 100 µM (inactive) | > 100 µM (inactive) | > 100 µM (inactive) | 77.1 µM (inactive) | > 100 µM (inactive) | > 100 µM (inactive) | > 100 µM (inactive)
CC1CCC(=O)C(C(=O)CC2CC(=O)NC(=O)C2)C1 (stereo not given) | > 100 µM (inactive) | > 100 µM (inactive) | > 100 µM (inactive) | > 100 µM (inactive) | > 100 µM (inactive) | > 100 µM (inactive) | > 100 µM (inactive) | > 100 µM (inactive) | > 100 µM (inactive) | > 100 µM (inactive) | > 100 µM (inactive) | > 100 µM (inactive) | > 100 µM (inactive) | > 100 µM (inactive) | > 100 µM (inactive) | > 100 µM (inactive) | > 100 µM (inactive) | > 100 µM (inactive) | > 100 µM (inactive) | > 100 µM (inactive)
COC(=O)[C@]1(Cc2ccc3ccccc3c2)CCCCCCN1C(=O)c1ccccc1 | > 34.4 µM (inactive) | > 32.2 µM (inactive) | > 34 µM (inactive) | 12.7 µM (inactive) | > 37.9 µM (inactive) | > 37 µM (inactive) | > 29.3 µM (inactive) | > 23.9 µM (inactive) | > 43.6 µM (inactive) | > 40.8 µM (inactive) | > 30.3 µM (inactive) | > 100 µM (inactive) | > 36.4 µM (inactive) | > 23.4 µM (inactive) | > 33.3 µM (inactive) | > 37.2 µM (inactive) | > 37 µM (inactive) | > 27.7 µM (inactive) | > 38 µM (inactive) | > 49.1 µM (inactive)
O=C1NC(=O)C2(CCC(O)C2)c2cc[n+]([O-])cc21 (stereo not given) | > 100 µM (inactive) | > 100 µM (inactive) | > 100 µM (inactive) | > 100 µM (inactive) | > 100 µM (inactive) | > 100 µM (inactive) | > 100 µM (inactive) | > 100 µM (inactive) | > 100 µM (inactive) | > 100 µM (inactive) | > 100 µM (inactive) | > 100 µM (inactive) | > 100 µM (inactive) | > 100 µM (inactive) | > 100 µM (inactive) | > 100 µM (inactive) | > 100 µM (inactive) | 71.8 µM (inactive) | > 100 µM (inactive) | > 100 µM (inactive)
Cc1ccc([N+](=O)[O-])cc1S(=O)(=O)Nc1ccc(C2=NN(S(=O)(=O)c3cc([N+](=O)[O-])ccc3C)C(c3ccccc3O)C2)cc1 (stereo not given) | 80.4 µM (inactive) | > 100 µM (inactive) | > 100 µM (inactive) | > 100 µM (inactive) | > 100 µM (inactive) | > 100 µM (inactive) | 53.5 µM (inactive) | > 100 µM (inactive) | > 100 µM (inactive) | > 100 µM (inactive) | > 100 µM (inactive) | 82.2 µM (inactive) | 44.6 µM (inactive) | 34.4 µM (inactive) | > 100 µM (inactive) | > 100 µM (inactive) | 30.8 µM (inactive) | 57.7 µM (inactive) | > 100 µM (inactive) | 51.8 µM (inactive)
CN(C)CCN1C(=O)c2cccc3cc([N+](=O)[O-])cc(c23)C1=O [MITONAFIDE] | 0.0762 µM (active) | 0.165 µM (active) | 1.11 µM (active) | 1.2 µM (inactive) | 0.0789 µM (active) | 0.179 µM (active) | 0.308 µM (active) | 0.163 µM (active) | 0.286 µM (active) | 0.17 µM (active) | 0.601 µM (active) | 0.0716 µM (active) | 1.31 µM (inactive) | 0.209 µM (active) | 0.252 µM (active) | 1.75 µM (inactive) | 0.195 µM (active) | 0.624 µM (active) | 1.49 µM (inactive) | 0.198 µM (active)
